Data as given in patent US20250114338A1, “TETRAHYDRO-PYRIDO[3,4-b]INDOLE ESTROGEN RECEPTOR MODULATORS AND USES THEREOF” (Genentech, Inc., priority 2014, published 2025).

Tested on: ER-alpha MCF7
Assay: ER-alpha MCF7 HCS EC50; stated as measured by in vitro cell proliferation assays of Examples 902 and 903
Type: cell-based
Details: Homo sapiens, MCF7, MCF7 cells; Table 2
Procedure, shortened: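 MCF7 cells seeded 1000-2000 cells/well for 16 h, then treated with nine-point 1:2 DMSO dilution series in quadruplicate at 37 °C, 5% CO2 for 4 days. Viable cells quantified by CellTiter-Glo ATP luminescence; EC50 calculated. Controls: fulvestrant at final 100 nM, DMSO 0.2% v/v.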

| Compound | EC50 [nM] |
| --- | --- |
| C[C@@H]1Cc2c([nH]c3ccccc23)[C@@H](c2c(F)cc(OCCN3CC(CF)C3)cc2F)N1C(=O)C1COC1 [Example 213, [(1R,3R)-1-[2,6-difluoro-4-[2-[3-(fluoromethyl)azetidin-1-yl]ethoxy]phenyl]-3-methyl-1,3,4,9-tetrahydropyrido[3,4-b]indol-2-yl]-(oxetan-3-yl)methanone] | 4 |
| C[C@@H]1Cc2c([nH]c3ccccc23)[C@@H](c2c(F)cc(OCCN3CC(CF)C3)cc2F)N1C(=O)C1CSC1 [Example 214, [(1R,3R)-1-[2,6-difluoro-4-[2-[3-(fluoromethyl)azetidin-1-yl]ethoxy]phenyl]-3-methyl-1,3,4,9-tetrahydropyrido[3,4-b]indol-2-yl]-(thietan-3-yl)methanone] | 4 |
| C[C@@H]1Cc2c([nH]c3ccccc23)[C@@H](c2c(F)cc(OCCN3CC(CF)C3)cc2F)N1C(=O)[C@@H](C)CF [Example 215, (R)-1-((1R,3R)-1-(2,6-difluoro-4-(2-(3-(fluoromethyl)azetidin-1-yl)ethoxy)phenyl)-3-methyl-1,3,4,9-tetrahydro-2H-pyrido[3,4-b]indol-2-yl)-3-fluoro-2-methylpropan-1-one] | 0.335 |
| C[C@@H]1Cc2c([nH]c3ccccc23)[C@@H](c2c(F)cc(OCCN3CC(CF)C3)cc2F)N1CC1CCCC1 [Example 216, (1R,3R)-2-(cyclopentylmethyl)-1-[2,6-difluoro-4-[2-[3-(fluoromethyl)azetidin-1-yl]ethoxy]phenyl]-3-methyl-1,3,4,9-tetrahydropyrido[3,4-b]indole] | 1 |
| C[C@@H]1Cc2c([nH]c3ccccc23)[C@@H](c2c(F)cc(OC3CN(CC4CCC(F)(F)CC4)C3)cc2F)N1CC(C)(C)F [Example 217, (1R,3R)-1-[4-[1-[(4,4-difluorocyclohexyl)methyl]azetidin-3-yl]oxy-2,6-difluoro-phenyl]-2-(2-fluoro-2-methyl-propyl)-3-methyl-1,3,4,9-tetrahydropyrido[3,4-b]indole] | 2 |
| C[C@H](CF)C(=O)N1[C@H](c2c(F)cc(OCCN3CC(CF)C3)cc2F)c2[nH]c3ccccc3c2C[C@H]1C [Example 218, (S)-1-((1R,3R)-1-(2,6-difluoro-4-(2-(3-(fluoromethyl)azetidin-1-yl)ethoxy)phenyl)-3-methyl-1,3,4,9-tetrahydro-2H-pyrido[3,4-b]indol-2-yl)-3-fluoro-2-methylpropan-1-one] | 0.402 |
| C[C@@H]1Cc2c([nH]c3ccccc23)[C@@H](c2c(F)cc(OCCN3CC(CF)C3)cc2F)N1C(=O)C1CCO1 (stereo partly drawn) [Example 219, ((1R,3R)-1-(2,6-difluoro-4-(2-(3-(fluoromethyl)azetidin-1-yl)ethoxy)phenyl)-3-methyl-1,3,4,9-tetrahydro-2H-pyrido[3,4-b]indol-2-yl)(oxetan-2-yl)methanone] | 35 |
| C[C@@H]1Cc2c([nH]c3ccccc23)[C@@H](c2c(F)cc(OCCN3CC(CF)C3)cc2F)N1 [Example 220, (1R,3R)-1-[2,6-difluoro-4-[2-[3-(fluoromethyl)azetidin-1-yl]ethoxy]phenyl]-3-methyl-2,3,4,9-tetrahydro-1H-pyrido[3,4-b]indole] | 7 |
| C[C@@H]1Cc2c([nH]c3ccccc23)[C@@H](c2ccc(OCCN3CC(CF)C3)cc2)N1C(=O)C(C)(C)F [Example 221, 2-fluoro-1-[(1R,3R)-1-[4-[2-[3-(fluoromethyl)azetidin-1-yl]ethoxy]phenyl]-3-methyl-1,3,4,9-tetrahydropyrido[3,4-b]indol-2-yl]-2-methyl-propan-1-one] | 180 |
| C[C@@H]1Cc2c([nH]c3ccccc23)[C@@H](c2c(F)cc(OC3CN(CCCF)C3)cc2F)N1C(=O)C(C)(C)F [Example 222, 1-[(1R,3R)-1-[2,6-difluoro-4-[1-(3-fluoropropyl)azetidin-3-yl]oxy-phenyl]-3-methyl-1,3,4,9-tetrahydropyrido[3,4-b]indol-2-yl]-2-fluoro-2-methyl-propan-1-one] | 0.4 |
| C[C@@H]1Cc2c([nH]c3ccccc23)[C@@H](c2c(F)cc(OCCN3CC(CF)C3)cc2F)N1C(=O)CN(C)C [Example 223, 1-[(1R,3R)-1-[2,6-difluoro-4-[2-[3-(fluoromethyl)azetidin-1-yl]ethoxy]phenyl]-3-methyl-1,3,4,9-tetrahydropyrido[3,4-b]indol-2-yl]-2-(dimethylamino)ethanone] | 38 |
| C[C@@H]1Cc2c([nH]c3ccccc23)[C@@H](c2c(F)cc(OC3CN(CC4(F)CC4)C3)cc2F)N1CC(C)(C)F [Example 224, (1R,3R)-1-[2,6-difluoro-4-[1-[(1-fluorocyclopropyl)methyl]azetidin-3-yl]oxy-phenyl]-2-(2-fluoro-2-methyl-propyl)-3-methyl-1,3,4,9-tetrahydropyrido[3,4-b]indole] | 0.316 |
| C[C@@H]1Cc2c([nH]c3ccccc23)[C@@H](c2c(F)cc(OC3CN(CCCF)C3)cc2F)N1C(=O)C1(F)CCC1 [Example 225, [(1R,3R)-1-[2,6-difluoro-4-[1-(3-fluoropropyl)azetidin-3-yl]oxy-phenyl]-3-methyl-1,3,4,9-tetrahydropyrido[3,4-b]indol-2-yl]-(1-fluorocyclobutyl)methanone] | 1 |

More lines, now with the values ahead:

| EC50 [nM] | Compound |
| --- | --- |
| 2 | C[C@@H]1Cc2c([nH]c3ccccc23)[C@@H](c2c(F)cc(OC3CN(CCCF)C3)cc2F)N1C(=O)C1(C)CC1 [Example 226, [(1R,3R)-1-[2,6-difluoro-4-[1-(3-fluoropropyl)azetidin-3-yl]oxy-phenyl]-3-methyl-1,3,4,9-tetrahydropyrido[3,4-b]indol-2-yl]-(1-methylcyclopropyl)methanone] |
| 0.17 | C[C@@H]1Cc2c([nH]c3ccccc23)[C@@H](c2c(F)cc(OC3CN(CCCF)C3)cc2F)N1CC1(CF)CC1 [Example 227] |
| 1 | C[C@@H]1Cc2c([nH]c3ccccc23)[C@@H](c2c(F)cc(OC3CN(CCCF)C3)cc2F)N1CC1(CO)CC1 [Example 228, [1-[[(1R,3R)-1-[2,6-difluoro-4-[1-(3-fluoropropyl)azetidin-3-yl]oxy-phenyl]-3-methyl-1,3,4,9-tetrahydropyrido[3,4-b]indol-2-yl]methyl]cyclopropyl] methanol] |
| 25 | C[C@@H]1Cc2c([nH]c3ccccc23)[C@H](c2ccc(OCCN3CC(CF)C3)cc2F)N1C(=O)C(C)(C)F [Example 229, 2-fluoro-1-[(1S,3R)-1-[2-fluoro-4-[2-[3-(fluoromethyl)azetidin-1-yl]ethoxy]phenyl]-3-methyl-1,3,4,9-tetrahydropyrido[3,4-b]indol-2-yl]-2-methyl-propan-1-one] |
| 0.068 | C[C@@H]1Cc2c([nH]c3ccccc23)[C@@H](c2ccc(OCCN3CC(CF)C3)cc2F)N1C(=O)C(C)(C)F [Example 230, 2-fluoro-1-[(1R,3R)-1-[2-fluoro-4-[2-[3-(fluoromethyl)azetidin-1-yl]ethoxy]phenyl]-3-methyl-1,3,4,9-tetrahydropyrido[3,4-b]indol-2-yl]-2-methyl-propan-1-one] |
| 24 | C[C@@H]1Cc2c([nH]c3ccccc23)[C@H](c2ccc(OCCN3CC(CF)C3)cc2F)N1S(C)(=O)=O [Example 231, (1S,3R)-1-[2-fluoro-4-[2-[3-(fluoromethyl)azetidin-1-yl]ethoxy]phenyl]-3-methyl-2-methylsulfonyl-1,3,4,9-tetrahydropyrido[3,4-b]indole] |
| 0.192 | C[C@@H]1Cc2c([nH]c3ccccc23)[C@@H](c2ccc(OCCN3CC(CF)C3)cc2F)N1S(C)(=O)=O [Example 232, (1R,3R)-1-[2-fluoro-4-[2-[3-(fluoromethyl)azetidin-1-yl]ethoxy]phenyl]-3-methyl-2-methylsulfonyl-1,3,4,9-tetrahydropyrido[3,4-b]indole] |
| 0.133 | C[C@@H]1Cc2c([nH]c3ccccc23)[C@@H](c2c(F)cc(OC3CN(CCCF)C3)cc2F)N1C[C@](C)(F)CO [Example 233, 3-((1R,3R)-1-(2,6-difluoro-4-((1-(3-fluoropropyl)azetidin-3-yl)oxy)phenyl)-3-methyl-1,3,4,9-tetrahydro-2H-pyrido[3,4-b]indol-2-yl)-2-fluoro-2-methylpropan-1-ol] |
| 0.18 | C[C@@H]1Cc2c([nH]c3ccccc23)[C@@H](c2c(F)cc(OC3CN(CCCF)C3)cc2F)N1C[C@@](C)(F)CO [Example 234, 3-((1R,3R)-1-(2,6-difluoro-4-((1-(3-fluoropropyl)azetidin-3-yl)oxy)phenyl)-3-methyl-1,3,4,9-tetrahydro-2H-pyrido[3,4-b]indol-2-yl)-2-fluoro-2-methylpropan-1-ol] |
| 24 | C[C@@H]1Cc2c([nH]c3ccccc23)[C@H](c2ccc(OCCN3CC(CF)C3)cc2)N1C(=O)C(C)(C)F [Example 235, 2-fluoro-1-[(1S,3R)-1-[4-[2-[3-(fluoromethyl)azetidin-1-yl]ethoxy]phenyl]-3-methyl-1,3,4,9-tetrahydropyrido[3,4-b]indol-2-yl]-2-methyl-propan-1-one] |
| 0.182 | CC(C)(F)CN1CCc2c([nH]c3ccccc23)[C@H]1c1c(F)cc(OCCN2CC(CF)C2)cc1F [Example 236, (IR)-1-[2,6-difluoro-4-[2-[3-(fluoromethyl)azetidin-1-yl]ethoxy]phenyl]-2-(2-fluoro-2-methyl-propyl)-1,3,4,9-tetrahydropyrido[3,4-b]indole] |
| 46 | CC(C)(F)CN1CCc2c([nH]c3ccccc23)[C@@H]1c1c(F)cc(OCCN2CC(CF)C2)cc1F [Example 237, (1S)-1-[2,6-difluoro-4-[2-[3-(fluoromethyl)azetidin-1-yl]ethoxy]phenyl]-2-(2-fluoro-2-methyl-propyl)-1,3,4,9-tetrahydropyrido[3,4-b]indole] |
| 0.244 | C[C@@H]1Cc2c([nH]c3ccccc23)[C@@H](c2c(F)cc(OC3CN(CCCF)C3)cc2F)N1C(=O)C1(F)CC1 [Example 238, [(1R,3R)-1-[2,6-difluoro-4-[1-(3-fluoropropyl)azetidin-3-yl]oxy-phenyl]-3-methyl-1,3,4,9-tetrahydropyrido[3,4-b]indol-2-yl]-(1-fluorocyclopropyl)methanone] |
